Experimental data taken from patent publication US20030207819A1, “Compositions and methods for treating inflammatory connective tissue diseases” (priority 2002, published 2003).

Assays:
[1] = system: patient with low-grade connective tissue symptoms; experiment: Example 5: clarithromycin study, VAS and joint assessment; assay type: in vivo, human
Source text: In 1991, it was elected to begin the patient on hydroxychloroquine ([…]®, Sanofi-Synthelabo, Inc.) given their low-grade connective tissue symptoms not responding to non-steroidal anti-inflammatory therapy. […] A trial of hydroxychloroquine was again initiated to see how they would tolerate it. […] Hydroxychloroquine was discontinued when they wanted to attempt getting pregnant again. Therapy most recently consisted of non-steroidal inflammatory agents and physical therapy.
On Feb. 27, 2003, the patient agreed to participate in the clarithromycin study. […] The patient was begun on clarithromycin (BIAXIN®, Abbott Laboratories) 500 mg twice per day.

[2] = system: patient with undifferentiated connective tissue disease; experiment: Example 6: clarithromycin trial, VAS and joint assessment; assay type: in vivo, human; details: for Patient VAS (Pain): baseline 89; for Practitioner VAS (Global): baseline 60; for Patient VAS (Global): baseline 63
Source text: A patient, was first seen in September 1999. […] They have used a number of anti-inflammatory agents frequently for therapy.
On the basis of the findings, including recurrent episodes of arthritis, Raynaud's, and thickening of the hands, connective tissue disease diagnoses such as Mixed Connective Tissue Disease or Progressive Systemic Sclerosis were considered.
Based on these findings, a diagnosis of Undifferentiated Connective Tissue Disease was made. Therapy was initiated with hydroxychloroquine ([…]®, Sanofi-Synthelabo, Inc.) and a non-steroidal anti-inflammatory agent. They utilized steroid dose packs periodically for symptomatic relief of their peripheral symptoms as well as their neck symptoms.
On examination, they had symptoms and findings much as before and a diagnosis of Undifferentiated Connective Tissue Disease was made. The patient agreed to undergo a trial with clarithromycin.
Following screening and baseline evaluations, the patient was begun on clarithromycin (BIAXIN®, Abbott Laboratories).
25, 2003 (“Visit 3”), for their first recheck visit.
When seen for their one month evaluation, the patient had been off steroid medication for approximately ten days.
Further assessment of their status was made on Apr. 13, 2003 at which time they were now off steroids for almost a one-month period.
Patient was again seen Apr. 21, 2003 (“Visit Four”), for their formal two-month follow-up on clarithromycin.

[3] = Visit Three, clarithromycin for one month
[4] = Visit Three, clarithromycin for one month, baseline 3
[5] = Visit Four, Apr. 21, 2003, clarithromycin for two months
[6] = Visit Four, clarithromycin for two months

For `CC[C@H]1OC(=O)[C@H](C)[C@@H](O[C@H]2C[C@@](C)(OC)[C@@H](O)[C@H](C)O2)[C@H](C)[C@@H](O[C@@H]2O[C@H](C)C[C@H](N(C)C)[C@H]2O)[C@](C)(OC)C[C@@H](C)C(=O)[C@H](C)[C@@H](O)[C@]1(C)O` [clarithromycin, 6-O-methylerythromycin], the “Patient VAS (Pain)” value ([1]; Visit Three, Apr. 2, 2003, clarithromycin 500 mg twice per day for one month, VAS 0 to 100 mm, baseline 67) was 26 mm, the “joint pain, patient statement” value ([1]; Visit Three, clarithromycin 500 mg twice per day) was “became better pretty much right away” and the “joint tenderness and swelling on physical examination” value [1, 3] was “decreased joint tenderness and swelling”. For the same molecule, the “Tender/Painful Joints” value [1, 4] was 0, the “Swollen Joints” value ([1]; Visit Three, clarithromycin for one month, baseline 6) was 1 and the “Patient VAS (Global)” value ([1]; Visit Three, clarithromycin for one month, baseline 30) was 12 mm. The “Practitioner VAS (Global)” value ([1]; Visit Three, clarithromycin for one month, baseline 54) was 25 mm, the side reaction ([1]; clarithromycin 500 mg twice per day, one month) was “metallic taste” and the side reaction ([2]; Apr. 13, 2003, on clarithromycin) was “bad taste”. For the same molecule, the “pain VAS, patient rating” value ([2]; Apr. 13, 2003, on clarithromycin, off steroids almost one month) was 25 mm, the “patient statement of improvement” value [2, 5] was 80% better and the side reaction [2, 5] was “mild bad taste”. The “Patient VAS (Pain)” value [2, 5] was 11 mm, the “Practitioner VAS (Global)” value [2, 6] was 4 mm and the “Patient VAS (Global)” value [2, 6] was 14 mm. For the same molecule, the “Patient VAS (Pain)” value ([2]; Visit Three, Mar. 25, 2003, clarithromycin for one month, off steroid about ten days) was 16 mm, the “Tender/Painful Joints” value [2, 4] was 0 and the “Practitioner VAS (Global)” value [2, 3] was 31 mm. The “Patient VAS (Global)” value [2, 3] was 51 mm.
